US20100130604A1, “USE OF ROSMARINIC ACID IN MANUFACTURE OF MEDICAMENTS FOR TREATING OR PREVENTING HEPATIC AND RENAL DISEASES” (SHANGDONG LUYE NATURAL DRUG RESEARCH AND DEVELOPMENT CO., …, priority 2006, published 2010)
Marks after values point to notes of the source that are not given here.

Tested on: hepatofibrosis in rats
Assay: CCl4-induced hepatofibrosis in chronic hepatitis in rats
Assay type: in vivo, Sprague Dawley rats
Conditions: for fiber proliferation level III (number of rats) / fiber proliferation level IV (number of rats) / T (Rank-sum test of fibrosis) / fiber proliferation level 0 (number of rats) / fiber proliferation level I (number of rats) / fiber proliferation level II (number of rats) / HYP / HA / LN / PCIII: 6 weeks; for fiber proliferation level III (number of rats) / fiber proliferation level IV (number of rats) / fiber proliferation level 0 (number of rats) / fiber proliferation level I (number of rats) / fiber proliferation level II (number of rats): n=10; for HYP: hepatic; for HA / LN / PCIII: serum
Protocol: 120 rats were randomly divided into 12 groups, with 10 in each group, namely, a normal control group, a model group, […] Apart from the normal control group, all rats were s.c. injected 0.3 ml of 40% solution of CC14 in oil per 100 g of body weight once every 3 days for 6 weeks. Animals in the normal control group were s.c. injected 0.3 ml/100 g body weight of oil vehicle following the same schedule as the experimental groups. First dose was doubled for all animals. Six weeks later, drugs were continuously administered to animals in each group for 6 weeks. After the administration was completed, all animals were anaesthetised with i.p. injection of 20% ethyl carbamate solution (Beijing Tongxian District Yucai Fine Chemicals). Blood was collected from abdominal aorta. Hepatic lobule tissue was removed, part of which was fixed with 10% neutral foinialin solution and made into wax blocks within 24-48 hours. […] Serum HA, LN, Pc III levels and hepatic HYP level were determined according to the respective kit instructions.

With `O=C(/C=C/c1ccc(O)c(O)c1)O[C@H](Cc1ccc(O)c(O)c1)C(=O)O` [RA, R(+)2-{[3-(3,4-dihydroxylphenyl-(oxo-2-propenyl)oxy]3,4-dihydroxylphenylpropionic acid]}] the “fiber proliferation level III (number of rats)” value (“fiber proliferation level III” below) (RA p.o. 2.5 mg/kg) was 3, the “fiber proliferation level IV (number of rats)” value (shortened to “fiber proliferation level IV”) (RA p.o. 2.5 mg/kg) was 4 and the “T (Rank-sum test of fibrosis)” value (RA p.o. 5 mg/kg) was 77*. The “fiber proliferation level 0 (number of rats)” value (RA p.o. 5 mg/kg) was 0, the “fiber proliferation level I (number of rats)” value (RA p.o. 5 mg/kg) was 1 and the “fiber proliferation level II (number of rats)” value (RA p.o. 5 mg/kg) was 2. For the same compound, the “fiber proliferation level III” value (RA p.o. 5 mg/kg) was 7, the “fiber proliferation level IV” value (RA p.o. 5 mg/kg) was 0 and the “T (Rank-sum test of fibrosis)” value (RA p.o. 25 mg/kg) was 71**. For the same compound, the “fiber proliferation level 0 (number of rats)” value (RA p.o. 25 mg/kg) was 0, the “fiber proliferation level I (number of rats)” value (RA p.o. 25 mg/kg) was 3 and the “fiber proliferation level II (number of rats)” value (RA p.o. 25 mg/kg) was 2. The “fiber proliferation level III” value (RA p.o. 25 mg/kg) was 5, the “fiber proliferation level IV” value (RA p.o. 25 mg/kg) was 0 and the “T (Rank-sum test of fibrosis)” value (RA p.o. 150 mg/kg) was 66**. For the same compound, the “fiber proliferation level 0 (number of rats)” value (RA p.o. 150 mg/kg) was 0, the “fiber proliferation level I (number of rats)” value (RA p.o. 150 mg/kg) was 3 and the “fiber proliferation level II (number of rats)” value (RA p.o. 150 mg/kg) was 4. The “fiber proliferation level III” value (RA p.o. 150 mg/kg) was 3, the “fiber proliferation level IV” value (RA p.o. 150 mg/kg) was 0 and the “T (Rank-sum test of fibrosis)” value (RA p.o. 300 mg/kg) was 66**. For the same compound, the “fiber proliferation level 0 (number of rats)” value (RA p.o. 300 mg/kg) was 0, the “fiber proliferation level I (number of rats)” value (RA p.o. 300 mg/kg) was 2 and the “fiber proliferation level II (number of rats)” value (RA p.o. 300 mg/kg) was 5. The “fiber proliferation level III” value (RA p.o. 300 mg/kg) was 2, the “fiber proliferation level IV” value (RA p.o. 300 mg/kg) was 1 and the “liver, electronic microscopic examination” value (RA treated groups) was “hepatocyte damages were alleviated”. For the same compound, the “liver, light microscopic examination (HE, VG collagen staining)” value (RA treated groups) was “less fiber connective tissue hyperplasia, thinner fibrous septa and less pseudolobule formation”, the “liver fibrosis, pathology examination” value (all RA treated groups vs model group) was “less severe fibrosis” and the HYP (i.v. 2.5 mg/kg) was 1657 ± 124 µg/L. For the same compound, the HYP (i.v. 5 mg/kg) was 1630 ± 110 µg/L, the HYP (i.v. 25 mg/kg) was 1578 ± 113 µg/L and the HYP (i.v. 75 mg/kg) was 1278 ± 121 µg/L. For the same compound, the HYP (i.v. 150 mg/kg) was 1217 ± 143 µg/L, the HYP (p.o. 2.5 mg/kg) was 1724 ± 121 µg/L and the HYP (p.o. 5 mg/kg) was 1614 ± 121 µg/L. For the same compound, the HYP (p.o. 25 mg/kg) was 1535 ± 125 µg/L, the HYP (p.o. 150 mg/kg) was 1299 ± 153 µg/L and the HYP (p.o. 300 mg/kg) was 1250 ± 174 µg/L. The “fibrosis (Rank-sum test)” value (i.v. 2.5, 5, 25, 75, 150 mg/kg, p.o. 5, 25, 150, 300 mg/kg) was “can significantly reduce fibrosis”, the “HA, LN, Pc III and HYP levels vs model group” value (i.v. 2.5, 5, 25, 75, 150 mg/kg, p.o. 5, 25, 150, 300 mg/kg, p<0.05 or 0.01) was “can all significantly reduce HA, LN, Pc III, and HYP levels” and the HA (i.v. 2.5 mg/kg) was 111.2 ± 24.1 µg/L. It also gave an LN (i.v. 2.5 mg/kg) of 72.6 ± 19.0 µg/L, a PCIII (i.v. 2.5 mg/kg) of 36.2 ± 7.8 µg/L and an HA (i.v. 5 mg/kg) of 106.3 ± 23.4 µg/L. For the same compound, the LN (i.v. 5 mg/kg) was 68.3 ± 17.9 µg/L, the PCIII (i.v. 5 mg/kg) was 34.2 ± 7.6 µg/L and the HA (i.v. 25 mg/kg) was 97.5 ± 23.6 µg/L. For the same compound, the LN (i.v. 25 mg/kg) was 62.0 ± 20.0 µg/L, the PCIII (i.v. 25 mg/kg) was 31.4 ± 7.8 µg/L and the HA (i.v. 75 mg/kg) was 77.9 ± 20.7 µg/L. It also gave an LN (i.v. 75 mg/kg) of 57.6 ± 16.8 µg/L, a PCIII (i.v. 75 mg/kg) of 26.5 ± 9.1 µg/L and an HA (i.v. 150 mg/kg) of 74.6 ± 18.9 µg/L. It also gave an LN (i.v. 150 mg/kg) of 55.3 ± 14.6 µg/L, a PCIII (i.v. 150 mg/kg) of 25.7 ± 7.8 µg/L and an HA (p.o. 2.5 mg/kg) of 113.8 ± 24.8 µg/L. For the same compound, the LN (p.o. 2.5 mg/kg) was 79.1 ± 19.4 µg/L, the PCIII (p.o. 2.5 mg/kg) was 38.0 ± 7.5 µg/L and the HA (p.o. 5 mg/kg) was 104.3 ± 26.4 µg/L. It also gave an LN (p.o. 5 mg/kg) of 69.3 ± 16.9 µg/L, a PCIII (p.o. 5 mg/kg) of 33.7 ± 7.3 µg/L and an HA (p.o. 25 mg/kg) of 97.0 ± 24.6 µg/L. It also gave an LN (p.o. 25 mg/kg) of 61.0 ± 20.6 µg/L, a PCIII (p.o. 25 mg/kg) of 31.6 ± 7.2 µg/L and an HA (p.o. 150 mg/kg) of 84.9 ± 20.5 µg/L. For the same compound, the LN (p.o. 150 mg/kg) was 59.6 ± 16.8 µg/L, the PCIII (p.o. 150 mg/kg) was 27.5 ± 9.6 µg/L and the HA (p.o. 300 mg/kg) was 80.7 ± 18.6 µg/L. It also gave an LN (p.o. 300 mg/kg) of 57.3 ± 18.6 µg/L and a PCIII (p.o. 300 mg/kg) of 26.9 ± 10.5 µg/L.
